Source: ChEMBL document CHEMBL4706610, “Hydroxypyridinone-Based Iron Chelators with Broad-Ranging Biological Activities” (J Med Chem, 2020)
Values after ≈ are worked out from the molar mass of the structure shown.

How the values were obtained:
[1] = Binding affinity to Fe3+ assessed as pFe by UV-Vis spectrophotometric method
[2] = Binding affinity to iron assessed as pFe3+ at pH 7.4
[3] = tested on: Rattus norvegicus; assay: Iron scavenging activity in 59Fe-ferritin-loaded Wistar rat assessed as iron mobilization efficacy at 450 umol/kg, po dosed 1 hr after 59Fe-ferritin injection and measured 24 hrs after 59Fe-ferritin injection by gamma counting method relative to control; assay type: functional; settings: dose 450 µmol/kg
[4] = tested on: Human immunodeficiency virus 1; assay: Antiviral activity against HIV1 BaL infected in human peripheral blood lymphocytes assessed as reduction in p24 production incubated for 5 days by ELISA; assay type: functional, organism-based; settings: Human immunodeficiency virus 1, BaL, PBL, 120 h
[5] = Binding affinity to iron assessed as pFe3+
[6] = biological target: T1, Amyloid-beta precursor protein (Homo sapiens, UniProt P05067); assay: Inhibition of self-induced amyloid beta (1 to 42) (unknown origin) aggregation measured after 24 hrs by ThT fluorescence assay relative to control; settings: concentration not given here
[7] = biological target: Acetylcholinesterase (Electrophorus electricus, UniProt O42275); assay: Inhibition of electric eel AChE using acetylthiocholine iodide as substrate preincubated for 15 mins followed by substrate addition and measured for 5 mins by Ellman's method
[8] = Antioxidant activity assessed as DPPH radical scavenging activity incubated for 30 mins by UV-Vis spectrophotometric method; assay type: functional
[9] = tested on: Staphylococcus aureus; assay: Protection against Staphylococcus aureus Smith infected in sc dosed mouse administered 1 hr post infection and measured at 7 days post infection by Litchfield-Wilcoxon method; assay type: functional; settings: 168 h, time 7 day
[10] = tested on: Staphylococcus aureus; assay: Antibacterial activity against Staphylococcus aureus incubated for 2 hrs followed by sterilized TSB addition and measured after 24 hrs by visual inspection; assay type: functional; settings: time 26 hrs
[11] = tested on: Bacillus subtilis; assay: Antibacterial activity against Bacillus subtilis incubated for 2 hrs followed by sterilized TSB addition and measured after 24 hrs by visual inspection; assay type: functional; settings: time 26 hrs
[12] = tested on: Pseudomonas aeruginosa; assay: Antibacterial activity against Pseudomonas aeruginosa incubated for 2 hrs followed by sterilized TSB addition and measured after 24 hrs by visual inspection; assay type: functional; settings: time 26 hrs
[13] = tested on: Escherichia coli; assay: Antibacterial activity against Escherichia coli incubated for 2 hrs followed by sterilized TSB addition and measured after 24 hrs by visual inspection; assay type: functional; settings: time 26 hrs
[14] = Electrochemical behavior of the compound assessed as redox potential; assay type: physicochemical
[15] = Binding affinity to iron assessed as pFe3+ at pH 7.45
[16] = tested on: Rattus norvegicus; assay: Iron scavenging activity in 59Fe-ferritin-loaded rat assessed as iron mobilization efficacy at 450 umol/kg, po dosed 1 hr after 59Fe-ferritin injection and measured 24 hrs after 59Fe-ferritin injection by gamma counting method relative to control; assay type: functional; settings: dose 450 µmol/kg; time 23 hrs
[17] = Partition coefficient, log P of the compound; assay type: physicochemical; settings: octanol/water
[18] = tested on: Staphylococcus aureus; assay: Antibacterial activity against Staphylococcus aureus ATCC 25913 incubated for 20 hrs by CLSI-based broth microdilution method; assay type: functional
[19] = tested on: Staphylococcus epidermidis; assay: Antibacterial activity against Staphylococcus epidermidis incubated for 20 hrs by CLSI-based broth microdilution method; assay type: functional
[20] = tested on: Enterococcus faecium; assay: Antibacterial activity against Enterococcus faecium BM4105 incubated for 20 hrs by CLSI-based broth microdilution method; assay type: functional
[21] = tested on: Enterococcus faecalis; assay: Antibacterial activity against Enterococcus faecalis incubated for 20 hrs by CLSI-based broth microdilution method; assay type: functional
[22] = Octanol/water partition coefficient, log P of the compound shaken for 45 mins and measured after 15 mins; assay type: physicochemical; settings: time 60 min
[23] = Antioxidant activity assessed as DPPH radical scavenging activity incubated for 30 mins by absorbance method; assay type: functional
[24] = biological target: Acetylcholinesterase (Torpedo californica, UniProt P04058); assay: Inhibition of Torpedo californica AChE using acetylthiocholine iodide as substrate preincubated for 15 mins followed by substrate addition and measured for 5 mins; set-up: species or system Tetronarce californica
[25] = biological target: T1, Amyloid-beta precursor protein; assay: Inhibition of human amyloid beta (1 to 42) aggregation incubated for 24 hrs by ThT fluorescence assay; settings: concentration not given here
[26] = tested on: Plasmodium falciparum; assay: Antiplasmodial activity against chloroquine-sensitive Plasmodium falciparum 3D7 incubated for 48 hrs by parasite lactate dehydrogenase assay; assay type: functional, organism-based; settings: 3D7, 48 h
[27] = tested on: Plasmodium falciparum; assay: Antiplasmodial activity against chloroquine-sensitive Plasmodium falciparum D10 incubated for 48 hrs by parasite lactate dehydrogenase assay; assay type: functional, organism-based; settings: D10, 48 h
[28] = tested on: Plasmodium falciparum; assay: Antiplasmodial activity against chloroquine-resistant Plasmodium falciparum K1 incubated for 48 hrs by parasite lactate dehydrogenase assay; assay type: functional, organism-based; settings: K1, 48 h
[29] = tested on: Plasmodium falciparum; assay: Antiplasmodial activity against chloroquine-resistant Plasmodium falciparum Dd2 incubated for 48 hrs by parasite lactate dehydrogenase assay; assay type: functional, organism-based; settings: Dd2, 48 h
[30] = Binding affinity to Fe3+ assessed as pFe at by potentiometric/UV-Vis spectrophotometric method
[31] = Binding affinity to Cu2+ assessed as pCu at pH 7.4 by potentiometric/UV-Vis spectrophotometric method

Acetylcholinesterase (Electrophorus electricus, UniProt O42275), sequence (O42275 whole entry): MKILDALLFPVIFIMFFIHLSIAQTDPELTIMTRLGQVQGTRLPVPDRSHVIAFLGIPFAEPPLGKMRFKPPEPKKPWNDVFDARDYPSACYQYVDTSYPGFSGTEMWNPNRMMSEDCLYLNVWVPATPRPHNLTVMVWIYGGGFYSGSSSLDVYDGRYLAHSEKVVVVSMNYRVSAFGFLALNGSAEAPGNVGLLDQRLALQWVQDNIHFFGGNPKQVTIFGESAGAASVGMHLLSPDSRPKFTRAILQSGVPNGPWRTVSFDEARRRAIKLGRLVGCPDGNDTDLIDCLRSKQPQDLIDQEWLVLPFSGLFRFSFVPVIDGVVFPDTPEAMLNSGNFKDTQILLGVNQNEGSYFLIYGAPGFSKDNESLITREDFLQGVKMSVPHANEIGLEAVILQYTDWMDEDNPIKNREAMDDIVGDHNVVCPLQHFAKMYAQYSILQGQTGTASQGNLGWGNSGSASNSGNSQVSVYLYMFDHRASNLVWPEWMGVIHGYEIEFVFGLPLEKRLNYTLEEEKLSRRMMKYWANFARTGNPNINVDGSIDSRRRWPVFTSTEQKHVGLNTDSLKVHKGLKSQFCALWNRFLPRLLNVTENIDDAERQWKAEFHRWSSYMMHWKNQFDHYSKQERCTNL
T1 sequence (P05067 whole entry): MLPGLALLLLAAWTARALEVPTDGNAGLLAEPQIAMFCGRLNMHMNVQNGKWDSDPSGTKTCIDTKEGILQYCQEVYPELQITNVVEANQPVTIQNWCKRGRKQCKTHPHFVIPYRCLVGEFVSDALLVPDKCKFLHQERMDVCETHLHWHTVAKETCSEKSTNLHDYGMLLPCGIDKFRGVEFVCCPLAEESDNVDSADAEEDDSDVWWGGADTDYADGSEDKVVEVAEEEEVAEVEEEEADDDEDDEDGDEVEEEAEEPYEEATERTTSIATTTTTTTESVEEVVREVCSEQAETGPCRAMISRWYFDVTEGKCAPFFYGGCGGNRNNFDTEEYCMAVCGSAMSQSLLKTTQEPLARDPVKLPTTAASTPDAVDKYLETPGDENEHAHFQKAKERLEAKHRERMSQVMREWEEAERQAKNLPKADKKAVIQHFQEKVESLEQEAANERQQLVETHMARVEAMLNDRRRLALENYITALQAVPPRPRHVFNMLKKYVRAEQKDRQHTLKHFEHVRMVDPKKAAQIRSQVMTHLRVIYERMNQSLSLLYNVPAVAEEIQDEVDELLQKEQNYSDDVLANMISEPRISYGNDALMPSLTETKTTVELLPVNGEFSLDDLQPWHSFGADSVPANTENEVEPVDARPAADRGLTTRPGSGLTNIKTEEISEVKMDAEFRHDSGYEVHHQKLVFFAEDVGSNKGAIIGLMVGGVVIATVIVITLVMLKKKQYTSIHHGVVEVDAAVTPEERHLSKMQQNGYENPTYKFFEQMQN
Acetylcholinesterase (Torpedo californica, UniProt P04058), sequence (P04058 whole entry): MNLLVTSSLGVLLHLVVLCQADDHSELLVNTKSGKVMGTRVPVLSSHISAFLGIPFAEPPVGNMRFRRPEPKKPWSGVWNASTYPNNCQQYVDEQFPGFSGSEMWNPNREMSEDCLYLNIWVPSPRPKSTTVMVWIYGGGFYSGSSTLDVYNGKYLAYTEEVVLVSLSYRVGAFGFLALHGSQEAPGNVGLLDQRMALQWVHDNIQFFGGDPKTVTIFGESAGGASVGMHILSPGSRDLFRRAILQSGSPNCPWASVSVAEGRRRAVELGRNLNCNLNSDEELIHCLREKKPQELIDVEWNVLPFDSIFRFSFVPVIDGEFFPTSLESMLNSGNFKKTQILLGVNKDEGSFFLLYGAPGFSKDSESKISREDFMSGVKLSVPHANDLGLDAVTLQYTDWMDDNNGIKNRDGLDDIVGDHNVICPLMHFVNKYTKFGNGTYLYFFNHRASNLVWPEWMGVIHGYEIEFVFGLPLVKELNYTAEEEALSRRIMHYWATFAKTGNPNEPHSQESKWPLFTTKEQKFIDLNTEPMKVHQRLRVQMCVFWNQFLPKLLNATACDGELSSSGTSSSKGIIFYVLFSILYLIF

`Cc1cc(=O)c(O)c(CO)n1CCCn1cc(COc2ccc3ccc(=O)oc3c2)nn1` gave an Activity [1] of 19.8.

`CNC(=O)c1c(O)c(=O)cc(C)n1C` gave an Activity [2] of 21.7, an Efficacy [3] of 58.7% and an IC50 [4] of 33.3 µM.

`Cc1c(O)c(=O)ccn1CC(=O)NCC(O)CNc1c2c(nc3ccccc13)CCCC2` (configuration not stated) showed an Activity [5] of 21.7, an inhibition [6] of 86% and an IC50 [7] of 0.96 µM. It also gave an EC50 [8] of 399 µM.

`CN(C)C(=O)c1cccc(O)c1O` gave an Activity [5] of 15.

With `CO/N=C(\C(=O)N[C@@H]1C(=O)N2C(C(=O)[O-])=C(C[n+]3cccc4c3CCC4)CS[C@H]12)c1csc(N)n1` [CEFPIROME] the ED50 [9] was 1.5 mg/kg.

With `CCCC(=O)NC(CCCNC(=O)c1c(O)c(=O)ccn1CCO)(CCCNC(=O)c1c(O)c(=O)ccn1CCO)CCCNC(=O)c1c(O)c(=O)ccn1CCO` the MIC [10] was 8 µg/mL (≈ 9.81 µM), the MIC [11] was 8 µg/mL (≈ 9.81 µM) and the MIC [12] was 16 µg/mL (≈ 19.6 µM). For the same molecule, the MIC [13] was 8 µg/mL (≈ 9.81 µM).

`Cc1c(O)c(=O)ccn1CC(=O)NCCCNc1c2c(nc3cc(Cl)ccc13)CCCC2` gave an inhibition [6] of 95.2%, an IC50 [7] of 0.86 µM and an EC50 [8] of 1110 µM.

With `Cc1c(O)c(=O)ccn1CC(=O)NCCCNc1c2c(nc3ccccc13)CCCC2` the IC50 [7] was 0.64 µM.

`CC(=O)N(O)CCCCCNC(=O)CCC(=O)N(O)CCCCCNC(=O)CCC(=O)N(O)CCCCCN` [DEFEROXAMINE] gave an Activity [5] of 26.6 and an Activity [14] of -468 mV.

For `CCCCn1ccc(=O)c(O)c1C(=O)NCCCC(CCCNC(=O)c1c(O)c(=O)ccn1CCCC)(CCCNC(=O)c1c(O)c(=O)ccn1CCCC)NC(=O)CCC`, the MIC [12] was 32 µg/mL (≈ 37.6 µM).

Molecule `Oc1cccc2cccnc12` [OXYQUINOLINE] has an Activity [14] of -150 mV.

`CCn1ccc(=O)c(O)c1C(C)O` (configuration not stated) gave an Activity [15] of 21.4 and an Efficacy [16] of 54.5%.

With `Cc1c(O)c(=O)ccn1CC(=O)NCC(O)CNc1c2c(nc3cc(Cl)ccc13)CCCC2` (configuration not stated) the IC50 [7] was 0.64 µM.

In the case of `CCC(O)c1c(O)c(=O)cc(C)n1C` (configuration not stated), the Activity [15] is reported as 21 and the Efficacy [16] is reported as 60.4%.

Work on `CCn1ccc(=O)c(O)c1C(=O)NCCCC(CCCNC(=O)c1c(O)c(=O)ccn1CC)(CCCNC(=O)c1c(O)c(=O)ccn1CC)NC(=O)[C@@H](N)CC(C)C` yielded an MIC [12] of 32 µg/mL (≈ 39.5 µM).

`Cc1c(O)c(=O)ccn1CCN1CCCCC1` gave a logP [17] of 0.96.

`CCN(CC)c1ccc2c(-c3ccc(C(=O)NCc4c(O)c(=O)cc(C)n4C)cc3)c3ccc(=[N+](CC)CC)cc-3oc2c1` gave an MIC [18] of 11 µM, an MIC [19] of 11 µM and an MIC [20] of 11 µM. It also gave an MIC [21] of 11 µM.

Molecule `COCCn1ccc(=O)c(O)c1C(=O)NCCCC(CCCNC(=O)c1c(O)c(=O)ccn1CCOC)(CCCNC(=O)c1c(O)c(=O)ccn1CCOC)NC(=O)[C@@H](N)CC(C)C` has an MIC [12] of 128 µg/mL (≈ 142 µM).

Molecule `Cc1c(O)c(=O)ccn1C` [DEFERIPRONE] has an Activity [5] of 20.4, a logP at 1 h [22] of 0.17 and an Efficacy [3] of 13.4%. It also gave an IC50 [4] of 102 µM and an Activity [14] of -620 mV.

Molecule `COc1cccc2cc(C(=O)NCCn3ccc(=O)c(OCc4ccccc4)c3C)oc12` has an EC50 [23] of over 1000 µM, an IC50 [24] of 76 µM and an inhibition [25] of 36.1%.

`CCc1c(OCc2ccccc2)c(=O)ccn1CCCCCCNc1ccnc2cc(Cl)ccc12` showed an IC50 [26] of 0.041 µM, an IC50 [27] of 0.122 µM and an IC50 [28] of 0.089 µM. For the same molecule, the IC50 [29] was 0.076 µM.

In the case of `COc1cccc2cc(C(=O)NCCn3ccc(=O)c(O)c3C)oc12`, the EC50 [23] is reported as 199 µM, the Activity [30] is reported as 17.3 and the Activity [31] is reported as 6.5. For the same molecule, the IC50 [24] was 246 µM and the inhibition [25] was 49.8%.

With `CCc1c(O)c(=O)ccn1CCCn1cc(COc2cc3ccccc3oc2=O)nn1` the Activity [1] was 17.1.
